Test results reported in patent US8946439B2, “Amide compounds, compositions and uses thereof” (Evotec AG, priority 2008, dated 2015).

What was measured:
[1] = molecular target: T1, hP2X3 (Homo sapiens, UniProt P56373); assay: Calcium uptake assay (P2X antagonist assay), P2X3 homomer; type: cell-based; conditions: calcium uptake assay, hP2X3; read-out: IC50 hP2X3 (nM), Ca Influx
T1 construct: expressed in transfected cells; host or cells: e.g. HEK293 or 1321N1
T1 sequence (P56373 1-397): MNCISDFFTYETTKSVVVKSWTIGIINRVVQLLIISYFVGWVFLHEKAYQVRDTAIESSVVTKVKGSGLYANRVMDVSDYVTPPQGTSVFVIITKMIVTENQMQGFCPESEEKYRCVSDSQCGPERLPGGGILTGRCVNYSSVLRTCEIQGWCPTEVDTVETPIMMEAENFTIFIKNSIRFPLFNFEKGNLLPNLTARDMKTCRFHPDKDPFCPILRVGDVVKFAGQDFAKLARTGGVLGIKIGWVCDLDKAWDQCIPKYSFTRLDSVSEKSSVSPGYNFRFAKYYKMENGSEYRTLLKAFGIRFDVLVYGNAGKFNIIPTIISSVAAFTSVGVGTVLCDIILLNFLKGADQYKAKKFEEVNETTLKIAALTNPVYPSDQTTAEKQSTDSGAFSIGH
In short: (§1)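 Stably or transiently transfected HEK293 or 1321N1 cells; the heteromer is made by adding P2X3 to a P2X2-stable line, with heteromer function isolated pharmacologically. The peak-minus-baseline FLIPR calcium signal gives % inhibition and a 4-parameter-logistic IC50.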

[2] = molecular target: T2, hP2X2/3H (Homo sapiens, UniProt P56373+Q9UBL9); assay: Calcium uptake assay (P2X antagonist assay), P2X2/3 heteromer; type: cell-based; conditions: calcium uptake assay, hP2X2/3H; read-out: IC50 hP2X2/3H (nM), Ca Influx
T2 construct: expressed in transfected cells; host or cells: e.g. HEK293 or 1321N1
T2 sequence (Q9UBL9 1-471): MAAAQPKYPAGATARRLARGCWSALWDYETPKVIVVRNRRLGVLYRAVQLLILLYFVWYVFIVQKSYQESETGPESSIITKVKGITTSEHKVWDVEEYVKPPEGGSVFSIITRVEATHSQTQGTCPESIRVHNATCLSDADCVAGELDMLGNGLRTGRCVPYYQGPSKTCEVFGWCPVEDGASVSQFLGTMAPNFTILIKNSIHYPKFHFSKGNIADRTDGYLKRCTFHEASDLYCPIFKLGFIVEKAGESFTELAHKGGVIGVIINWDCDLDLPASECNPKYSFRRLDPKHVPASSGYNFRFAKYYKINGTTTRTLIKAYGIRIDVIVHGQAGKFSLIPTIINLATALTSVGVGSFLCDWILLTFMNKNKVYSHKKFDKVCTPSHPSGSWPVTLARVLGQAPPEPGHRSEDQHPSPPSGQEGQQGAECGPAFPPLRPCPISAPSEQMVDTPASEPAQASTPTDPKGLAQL
T2 sequence (P56373 1-397): T1 sequence (P56373 1-397)
In short: as §1

Structure (SMILES) | IC50 [1] | IC50 [2]
Cc1ccc(-c2cc(S(=O)(=O)N3CCCC3)cc(C(=O)NCc3ccc(C)nc3)c2C)cc1 [Compound 68] | 100 to 500 nM | > 1000 nM
Cc1ccc(-c2cc(C(=O)NCc3ccc(Cl)nc3)cc(C(=O)N3CCCC3)c2)c(C#N)c1 [Compound 69] | < 100 nM | < 100 nM
CCCS(=O)(=O)c1cc(C(=O)N[C@@H](C)CN2CCOCC2)cc(-c2ccc(C)cc2)c1 [Compound 70] | < 100 nM | 100 to 500 nM
Cc1ccc(-c2cc(C(=O)N[C@H](C)c3ccc(C(F)(F)F)nc3)cc(C(=O)N3CCC3)c2)cc1 [Compound 75] | < 100 nM | < 100 nM
Cc1ccc(-c2cc(C(=O)N[C@H](C)c3cnc(C)nc3)cc(C(=O)N3CC(O)C3)c2)cc1 [Compound 76] | < 100 nM | < 100 nM
COc1ncc([C@@H](C)NC(=O)c2cc(C(=O)N3CCC3)cc(-c3ccc(C)cc3)c2)cn1 [Compound 77] | < 100 nM | < 100 nM
Cc1ccc(-c2cc(C(=O)N[C@H](C)c3cnc(C)nc3)cc(C(=O)N3CCC3)c2)cc1 [Compound 78] | < 100 nM | < 100 nM
Cc1ccc(-c2cc(C(=O)N[C@@H](C)CN3CCOCC3)cc(C(=O)N3CCCC3)c2)cc1 [Compound 82] | < 100 nM | 501 to 1000 nM
Cc1ccc(-c2cc(C(=O)NC(CCO)c3ccc(C(F)(F)F)nc3)cc(C(=O)N3CCCC3)c2)cc1 (stereo not shown) [Compound 83, N-(3-Hydroxy-1-(6-(trifluoromethyl)pyridin-3-yl)propyl)-4′-methyl-5-(pyrrolidine-1-carbonyl)biphenyl-3-carboxamide] | 100 to 500 nM | 100 to 500 nM
COc1ncc([C@@H](C)NC(=O)c2cc(C(=O)N3CC(O)C3)cc(-c3ccc(C)cc3)c2)cn1 [Compound 84] | < 100 nM | 100 to 500 nM
Cc1ccc(-c2cc(C(=O)N[C@H](C)c3ccc(C(F)(F)F)nc3)cc(C(=O)N3CC(O)C3)c2)cc1 [Compound 85] | < 100 nM | < 100 nM
Cc1ccc(-c2cc(C(=O)NCc3ccc(C)nc3)cc(C(=O)N3CCC(N4CCOCC4)C3)c2)cc1 (stereo not shown) [Compound 86, 4′-Methyl-N-((6-methylpyridin-3-yl)methyl)-5-(3-morpholinopyrrolidine-1-carbonyl)biphenyl-3-carboxamide] | 100 to 500 nM | 100 to 500 nM
Cc1ccc(-c2cc(C(=O)O)cc(C(=O)NCc3ccc(C)nc3)c2)cc1 [Compound 87, 4′-Methyl-5-((6-methylpyridin-3-yl)methylcarbamoyl)biphenyl-3-carboxylic acid] | 100 to 500 nM | 100 to 500 nM
CCOC(=O)c1cc(C(=O)NCc2ccc(C)nc2)cc(-c2ccc(C)cc2)c1 [Compound 88] | 100 to 500 nM | < 100 nM
Cc1ccc(-c2cc(C(=O)N[C@H](CO)c3ccc(C(F)F)nc3)cc(C(=O)N3CCCC3)c2)cc1 [Compound 89] | < 100 nM | < 100 nM
Cc1ccc(-c2cc(C(=O)N[C@H](CO)c3ccc(C(F)(F)F)nc3)cc(C(=O)N3CCCC3)c2)cc1 [Compound 92] | < 100 nM | < 100 nM
Cc1ccc(-c2cc(C(=O)N[C@@H](C)c3cnc(C)nc3)cc(C(=O)N3CCCC3)c2)cc1 [Compound 93] | 100 to 500 nM | 501 to 1000 nM
Cc1ccc(-c2cc(C(=O)NCc3ccc(C)nc3)cc(C(=O)N3CC[C@@H](O)C3)c2)cc1 [Compound 94, (R)-5-(3-Hydroxypyrrolidine-1-carbonyl)-4′-methyl-N-((6-methylpyridin-3-yl)methyl)biphenyl-3-carboxamide] | < 100 nM | < 100 nM
Cc1ccc(-c2cc(C(=O)N[C@H](CO)c3cnc(C)nc3)cc(C(=O)N3CCCC3)c2)cc1 [Compound 96] | < 100 nM | < 100 nM
Cc1ncc(CNC(=O)c2cc(C(=O)N3CCCC3)cc(-c3ccc(F)cn3)c2)cn1 [Compound 99] | > 1000 nM | > 1000 nM
Cc1ccc(-c2cc(C(=O)NCc3ccc(C)nc3)cc(C(=O)N3CC[C@@H](NC(=O)OC(C)(C)C)C3)c2)cc1 [Compound 100] | 501 to 1000 nM | 100 to 500 nM
Cc1ccc(-c2cc(C(=O)N[C@H](C)c3cnc(C)c(Cl)c3)cc(C(=O)N3CCCC3)c2)cc1 [Compound 104] | < 100 nM | 100 to 500 nM
Cc1ccc(-c2cc(C(=O)NCc3ccc(C)nc3)cc(S(=O)(=O)N3CCCC3)c2)cc1 [Compound 105] | < 100 nM | < 100 nM
Cc1ccc(-c2cc(C(=O)NCc3ccc(C)nc3)cc(S(=O)(=O)N3CCCC3)c2)nc1 [Compound 106] | < 100 nM | < 100 nM
Cc1ccc(-c2cc(C(=O)N[C@H](C)c3cnn(C)c3C(F)(F)F)cc(C(=O)N3CCCC3)c2)cc1 [Compound 107] | 100 to 500 nM | 501 to 1000 nM
Cc1ccc(-c2cc(C(=O)N[C@H](C)c3cnn(C)c3Cl)cc(C(=O)N3CCCC3)c2)cc1 [Compound 108, (R)—N-(1-(5-Chloro-1-methyl-1H-pyrazol-4-yl)ethyl)-4′-methyl-5-(pyrrolidine-1-carbonyl)biphenyl-3-carboxamide] | < 100 nM | < 100 nM
Cc1ccc(-c2cc(C(=O)N[C@H](C)c3cnn(C)c3C)cc(C(=O)N3CCCC3)c2)cc1 [Compound 109] | 100 to 500 nM | 501 to 1000 nM
Cc1ccc(-c2cc(C(=O)N[C@H](C)c3cnn4c3COCC4)cc(C(=O)N3CCCC3)c2)cc1 [Compound 110] | 100 to 500 nM | > 1000 nM
Cc1ccc(-c2cc(C(=O)NC(C)c3csc(C)n3)cc(C(=O)N3CCCC3)c2)cc1 (stereo not shown) [Compound 111, 4′-Methyl-N-(1-(2-methylthiazol-4-yl)ethyl)-5-(pyrrolidine-1-carbonyl)biphenyl-3-carboxamide] | < 100 nM | 100 to 500 nM

More lines, now with the values ahead:

IC50 [1] | IC50 [2] | Structure (SMILES)
< 100 nM | < 100 nM | Cc1ccc(-c2cc(C(=O)NCc3ccc(C)c(S(C)(=O)=O)c3)cc(C(=O)N3CCCC3)c2)cc1 [Compound 71]
< 100 nM | < 100 nM | Cc1ccc(-c2cc(C(=O)NCc3ccc4c(c3)S(=O)(=O)CC4)cc(C(=O)N3CCCC3)c2)cc1 [Compound 72]
100 to 500 nM | 501 to 1000 nM | Cc1ccc(-c2cc(C(=O)NCc3ccc(Cl)c(S(=O)(=O)NC4CC4)c3)cc(C(=O)N3CCCC3)c2)cc1 [Compound 73, N-(4-Chloro-3-(N-cyclopropylsulfamoyl)benzyl)-4′-methyl-5-(pyrrolidine-1-carbonyl)biphenyl-3-carboxamide]
< 100 nM | < 100 nM | Cc1ccc(-c2cc(C(=O)NCc3ncc(C(F)(F)F)cc3Cl)cc(C(=O)N3CCCC3)c2)cc1 [Compound 74]
100 to 500 nM | 501 to 1000 nM | COc1ncc(CNC(=O)c2cc(C(=O)N3CCCC3)cc(-c3ccc(C)cc3)c2)c(N)n1 [Compound 79]
501 to 1000 nM | > 1000 nM | Cc1ccc(-c2cc(C(=O)NCc3cnc(C(C)C)nc3)cc(C(=O)N3CCCC3)c2)cc1 [Compound 80]
< 100 nM | < 100 nM | Cc1ccc(-c2cc(C(=O)NCc3ncc(Cl)cc3Cl)cc(C(=O)N3CCCC3)c2)cc1 [Compound 81]
< 100 nM | < 100 nM | Cc1ccc(-c2cc(C(=O)NCc3ccc4ocnc4c3)cc(C(=O)N3CCCC3)c2)cc1 [Compound 90]
< 100 nM | < 100 nM | Cc1ccc(-c2cc(C(=O)NCc3ccc(Cl)nc3)cc(C(=O)N3CCCC3)c2)cc1 [Compound 91]
< 100 nM | 100 to 500 nM | Cc1ccc(-c2cc(C(=O)NCc3ccc(C)nc3)cc(C(=O)N3CC[C@H](O)C3)c2)cc1 [Compound 95, (S)-5-(3-Hydroxypyrrolidine-1-carbonyl)-4′-methyl-N-((6-methylpyridin-3-yl)methyl)biphenyl-3-carboxamide]
100 to 500 nM | 100 to 500 nM | Cc1ccc(-c2cc(C(=O)NC(C)c3ccc4c(c3)OCO4)cc(C(=O)N3CCCC3)c2)cc1 (stereo not shown) [Compound 97]
100 to 500 nM | 100 to 500 nM | Cc1ccc(-c2cc(C(=O)NCc3ccc4c(c3)OCO4)cc(C(=O)N3CCCC3)c2)cc1 [Compound 98]
100 to 500 nM | 501 to 1000 nM | Cc1ccc(-c2cc(C(=O)NCc3ccc(C)nc3)cc(C(=O)N3CC[C@@H](N)C3)c2)cc1 [Compound 101]
< 100 nM | < 100 nM | Cc1ccc(-c2cc(C(=O)NCc3ccc(Cl)c(-n4cnnc4)c3)cc(C(=O)N3CCCC3)c2)cc1 [Compound 102]
< 100 nM | < 100 nM | Cc1ccc(-c2cc(C(=O)NC(C)c3ccc(C)nc3)cc(C(=O)N3CCCC3)c2)cc1 (stereo not shown) [Compound 103]
